Data: BindingDB's records for doi:10.1016/j.bmc.2007.01.021 (Polish Academy of Sciences, 2007)

molecular target: Thymidylate synthase (Mus musculus, UniProt P07607); assay: Inhibition of mouse thymidylate synthase in mouse L1210 cells
Sequence (P07607 whole entry): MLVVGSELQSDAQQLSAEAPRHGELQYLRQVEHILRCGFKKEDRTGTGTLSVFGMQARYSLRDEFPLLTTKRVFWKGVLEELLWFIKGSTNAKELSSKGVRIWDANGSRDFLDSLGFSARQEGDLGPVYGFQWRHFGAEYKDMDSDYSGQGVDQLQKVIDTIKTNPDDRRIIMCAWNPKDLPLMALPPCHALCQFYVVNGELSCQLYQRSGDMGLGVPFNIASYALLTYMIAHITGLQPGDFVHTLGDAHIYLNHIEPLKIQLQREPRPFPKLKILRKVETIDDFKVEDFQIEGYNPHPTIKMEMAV

First: CCc1cn([C@H]2C[C@H](O)[C@@H](OP(=O)(O)O)O2)c(=O)[nH]c1=O
Second: CCCc1cn([C@H]2C[C@H](O)[C@@H](OP(=O)(O)O)O2)c(=O)[nH]c1=O
The Ki of the first is 3.5-fold higher: 0.0281 µM for the first, 0.00812 µM for the second. The second binds more tightly here.

Compared with `O=c1[nH]c(=O)n([C@H]2C[C@H](O)[C@@H](OP(=O)(O)O)O2)cc1Br`, `O=c1[nH]c(=O)n([C@H]2C[C@H](O)[C@@H](OP(=O)(O)O)O2)cc1O` is 2.1-fold lower in Ki: 0.66 µM for the first, 0.309 µM for the second.

Going from `O=c1[nH]c(=O)n([C@H]2C[C@H](O)[C@@H](OP(=O)(O)O)O2)cc1CO` to `Cc1cn([C@H]2C[C@H](O)[C@@H](OP(=O)(O)O)O2)c(=O)[nH]c1=O`, the Ki falls from 0.269 µM to 0.138 µM (1.9-fold).

First: O=c1[nH]c(=O)n([C@H]2C[C@H](O)[C@@H](OP(=O)(O)O)O2)cc1[N+](=O)[O-]
Second: O=c1[nH]c(=O)n([C@H]2C[C@H](O)[C@@H](OP(=O)(O)O)O2)cc1I
The Ki of the first is 50-fold lower: 0.00257 µM for the first, 0.128 µM for the second.
